Measured values reported in patent US9120798B2, “Amino-heteroaryl 7-hydroxy-spiropiperidine indolinyl antagonists of P2Y1 receptor” (priority 2012, dated 2015).

What was measured:
[1] = target: T1, cloned human P2Y1 receptors (Homo sapiens (Human), UniProt P47900); assay: Binding Assay A: membrane binding assay, [33P] 2MeS-ADP, WGA FlashPlates
Excerpt: A membrane binding assay was used to identify inhibitors of [^33P] […] The cDNA clone for human P2Y1 was obtained from Incyte Pharmaceuticals and its sequence confirmed by established techniques (for a compendium of techniques used see Ausubel, F. et al. Current Protocols in Molecular Biology, John Wiley and Sons, NY, N.Y. (1995)). The essential coding sequences were subcloned into pCDNA 3.1 (Invitrogen) to produce a P2Y1 expression construct. This construct was then transfected into the human embryonic kidney cell line HEK-293 and stable transfectants selected in GENETICIN® (G418 sulfate; Life Technologies). […] Membranes were prepared by growing HEK293 #49 in 150 mm dishes in DMEM/10% FBS in the presence of 1 mg/ml G418 until cells were 80-90% confluent. Plates were then washed with cold (4° C.) D-PBS twice and cells harvested by scraping into 10 mL D-PBS. Cells were pelleted by centrifugation (1,000 g, 10 min, 4° C.) and the resulting pellet resuspended in Lysis Buffer (10 mM Tris (7.4), 5 mM MgCl2 containing Complete protease inhibitor cocktail (Roche Cat #1873580) as recommended by the manufacturer). The suspension was then homogenized in a Dounce homogenizer (10-15 strokes; B pestle, on ice) and the homogenate spun at 1,000 g, 4° C., 5 min to pellet large debris. The supernatant was centrifuged at 150,000 g, 4° C., for 1 hour and the resulting membrane pellet resuspended in 0.5-1 mL of Buffer B (15 mM HEPES (7.4), 145 mM NaCl, 0.1 mM MgCl2, 5 mM EDTA, 5 mM KCl) and stored at −70° C. until used.
Binding reactions were performed in WGA FlashPlates (PerkinElmer Life Sciences, Cat # SMP105A) in a volume of 200 μL containing ˜45 fmol of P2Y1 receptor (5 μg of total protein), 0.5 nM [^33P] […] Reactions were allowed to proceed to completion at room temperature for 1 hour and then the aqueous solution aspirated. Plates were sealed and the residual [^33P] bound to the plate determined by scintillation counting.

[2] = test system: human platelet rich plasma (PRP); assay: ADP induced platelet aggregation assay; format: cell-based; conditions: 5 min, read-out: PA IC50 (μM) @ 10 μM ADP
Protocol: ADP Induced Platelet Aggregation Assay
The ability of P2Y1 antagonists covered in the present invention to inhibit platelet aggregation induced by 10 μM ADP was tested using human platelet rich plasma (PRP) as described in Platelet Protocols: Research and Clinical Laboratory Procedures (White, M. M. et al., Academic Press (1999)). Human blood was collected in 30 μM (final concentration in blood) argatroban (GSK) as the anticoagulant at a ratio of 1 ml per 9 ml of blood. The PRP was isolated by centrifugation at 170 g for 12 minutes. The platelet poor plasma (PPP) was used as the blank for optical aggregometry. Compounds of the present invention in DMSO solution was preincubated with 250 μl PRP at 37° C. for 1 minute with stirring speed of 1000 rpm. Aggregation was initiated by addition of 2.5 μl of 1 mM ADP (Chrono-log, Havertown, Pa.) for a final ADP concentration of 10 uM. Platelet aggregation was monitored using Optical Aggregometer (Chrono-log, Havertown, Pa.) and the area under the curve (AUC) at 5 minute was measured. IC50 was calculated using vehicle control as 0% inhibition.
The platelet aggregation assay measures the in vitro antiplatelet activity of a compound in platelet rich plasma. The assay is sensitive to plasma protein binding, and is believed to be a better predictor of actual in vivo activity.

[3] = target: T1, cloned human P2Y1 receptors; assay: Binding Assay B: Scintillation Proximity Assay (SPA) for P2Y1 binding
Protocol: Binding Assay B—Scintillation Proximity Assay (SPA) for P2Y1 Binding
A SPA membrane binding assay was used to identify inhibitors of [^33P] […] Binding reactions were performed in 384-well OptiPlates (PerkinElmer Life Sciences, Cat #6007299) in a volume of 50 μL containing ˜15 fmol of P2Y1 receptor (1.7 μg of total protein), 0.3 nM [^33P] […] Reactions were allowed to proceed to completion at room temperature for 1 hour followed by centrifugation of the plate for 5 min. About 40 μL of the aqueous solution was aspirated. Plates were sealed and the [^33P]

[4] = read-out: P2Y1 Ki (nM), *Using binding assay A
[5] = SPA, 0.3 nM [33P] 2MeS-ADP, Cheng-Prusoff, read-out: P2Y1 Ki (nM) using binding assay B

T1 sequence (P47900 whole entry): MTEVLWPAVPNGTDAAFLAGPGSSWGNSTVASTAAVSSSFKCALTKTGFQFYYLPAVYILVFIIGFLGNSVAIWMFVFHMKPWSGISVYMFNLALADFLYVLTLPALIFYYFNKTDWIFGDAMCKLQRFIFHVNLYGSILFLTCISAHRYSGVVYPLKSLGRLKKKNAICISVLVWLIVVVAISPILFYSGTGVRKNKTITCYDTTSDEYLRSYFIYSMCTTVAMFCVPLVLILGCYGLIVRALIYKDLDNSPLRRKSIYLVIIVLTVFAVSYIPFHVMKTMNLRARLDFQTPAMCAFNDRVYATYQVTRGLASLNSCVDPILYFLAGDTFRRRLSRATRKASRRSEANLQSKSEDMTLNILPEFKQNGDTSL

SMILES | Ki [1, 4] | IC50 [2] | Ki [1] | Ki [3] | Ki [3, 5]
CC(C)(C)CN1CCC2(CC1)CCN(c1ccccc1Nc1nc3ccc(C(C)(C)C)cc3[nH]1)c1ccccc12 [Comparator 1, reference compound] | 259 nM | > 40 µM | – | – | –
CCOC(=O)c1sc(Nc2ccccc2N2CC3(CCN(CC(C)(C)C)CC3)c3ccccc32)nc1C(F)(F)F [Comparator 2, reference compound] | 6.3 nM | > 40 µM | – | – | –
COC(=O)c1sc(Nc2ccccc2N2CC3(CCN(CC(C)(C)C)CC3)c3ccccc32)nc1C [Comparator 3, reference compound] | 18 nM | > 40 µM | – | – | –
CC(C)(C)CN1CCC2(CC1)CN(c1ccccc1Nc1nc(C(F)(F)F)c(-c3ccccc3)s1)c1ccccc12 [Comparator 4, reference compound] | 7.9 nM | > 40 µM | – | – | –
CC(C)(C)CN1CCC2(CC1)CN(c1ccccc1Nc1nnc(-c3ccc(C(F)(F)F)cc3)s1)c1c(O)ccc(Cl)c12 [Example 7, 4-Chloro-1′-neopentyl-1-(2-(5-(4-(trifluoromethyl)phenyl)-1,3,4-thiadiazol-2-ylamino)phenyl)spiro[indoline-3,4′-piperidin]-7-ol] | – | 2.7 µM | 3.3 nM | – | –
CC(C)(C)CN1CCC2(CC1)CN(c1ccccc1Nc1nnc(-c3ccc(Cl)cc3)s1)c1c(O)ccc(F)c12 [Example 31, 1-(2-((5-(4-chlorophenyl)-1,3,4-thiadiazol-2-yl)amino)phenyl)-4-fluoro-1′-neopentylspiro-[indoline-3,4′-piperidin]-7-ol] | – | 4.2 µM | – | 6 nM | –
CC(C)(C)CN1CCC2(CC1)CN(c1ccccc1Nc1nnc(-c3ccc(OC(F)(F)F)cc3)s1)c1c(O)c(F)cc(Cl)c12 [Example 32, 4-chloro-6-fluoro-1′-neopentyl-1-(2-((5-(4-(trifluoromethoxy)-phenyl)-1,3,4-thiadiazol-2-yl)amino)phenyl)spiro[indoline-3,4′-piperidin]-7-ol] | – | 15.6 µM | – | 69 nM | –
CC(C)(C)CN1CCC2(CC1)CN(c1ccccc1Nc1nnc(-c3ccc(OC(F)(F)F)cc3)s1)c1c(O)cc(F)c(Cl)c12 [Example 33, 4-chloro-5-fluoro-1′-neopentyl-1-(2-((5-(4-(trifluoromethoxy)-phenyl)-1,3,4-thiadiazol-2-yl)amino)phenyl)spiro[indoline-3,4′-piperidin]-7-ol] | – | 9.2 µM | – | 23 nM | –
CC(C)(C)CN1CCC2(CC1)CN(c1ccccc1Nc1nnc(-c3ccc(OC(F)(F)F)cc3)s1)c1c(O)cc(F)c(F)c12 [Example 34, 4,5-difluoro-1′-neopentyl-1-(2-((5-(4-(trifluoromethoxy)-phenyl)-1,3,4-thiadiazol-2-yl)amino)phenyl)spiro[indoline-3,4′-piperidin]-7-ol] | – | 9.9 µM | – | 37 nM | –
CC(C)(C)CN1CCC2(CC1)CN(c1ccccc1Nc1nc(-c3ccccc3)ns1)c1c(O)ccc(Cl)c12 [Example 35, 4-Chloro-1′-neopentyl-1-(2-(3-phenyl-1,2,4-thiadiazol-5-ylamino)phenyl)spiro[indoline-3,4′-piperidin]-7-ol] | – | 5.4 µM | – | – | 6 nM
CC(C)(C)CN1CCC2(CC1)CN(c1ccccc1Nc1nc(C(C)(C)C)ns1)c1c(O)ccc(Cl)c12 [Example 36, 1-(2-(3-tert-Butyl-1,2,4-thiadiazol-5-ylamino)phenyl)-4-chloro-1′-neopentylspiro[indoline-3,4′-piperidin]-7-ol] | – | 2.1 µM | – | 8 nM | –
CC(C)(C)CN1CCC2(CC1)CN(c1ccccc1Nc1cc(-c3ccc(C(F)(F)F)cc3)on1)c1c(O)ccc(Cl)c12 [Example 37, 4-Chloro-1′-neopentyl-1-(2-(5-(4-(trifluoromethyl)phenyl)isoxazol-3-ylamino)phenyl)spiro[indoline-3,4′-piperidin]-7-ol] | – | 9.9 µM | – | 60 nM | –
CC(C)(C)CN1CCC2(CC1)CN(c1ccccc1Nc1cc(-c3ccccc3)on1)c1c(O)ccc(Cl)c12 [Example 38, 4-Chloro-1′-neopentyl-1-(2-(5-phenylisoxazol-3-ylamino)phenyl)spiro[indoline-3,4′-piperidin]-7-ol] | – | 9 µM | – | – | 66 nM
CC(C)(C)CN1CCC2(CC1)CN(c1ccccc1Nc1nc(C(C)(C)C)c(C#N)s1)c1c(O)ccc(Cl)c12 [Example 39, 4-tert-Butyl-2-(2-(4-chloro-7-hydroxy-1′-neopentylspiro[indoline-3,4′-piperidine]-1-yl)phenylamino)thiazole-5-carbonitrile] | – | 4.9 µM | – | 9 nM | –
CCOC(=O)c1sc(Nc2ccccc2N2CC3(CCN(CC(C)(C)C)CC3)c3c(Cl)ccc(O)c32)nc1C(F)(F)F [Example 40, Ethyl 2-(2-(4-chloro-7-hydroxy-1′-neopentylspiro[indoline-3,4′-piperidine]-1-yl)phenylamino)-4-(trifluoromethyl)thiazole-5-carboxylate] | – | 1 µM | – | 19 nM | –
CC(C)CN1CCc2nc(Nc3ccccc3N3CC4(CCN(CC(C)(C)C)CC4)c4c(Cl)ccc(O)c43)sc2C1 [Example 41, 4-Chloro-1-(2-(5-isobutyl-4,5,6,7-tetrahydrothiazolo[5,4-c]pyridin-2-ylamino)phenyl)-1′-neopentylspiro[indoline-3,4′-piperidin]-7-ol] | – | 20.3 µM | – | 21 nM | –
CC(C)(C)CN1CCC2(CC1)CN(c1ccccc1Nc1ccc(C(F)(F)F)cn1)c1c(O)ccc(Cl)c12 [Example 42, 4-Chloro-1′-neopentyl-1-(2-(5-(trifluoromethyl)pyridin-2-ylamino)phenyl)spiro[indoline-3,4′-piperidin]-7-ol] | – | 22.8 µM | – | 22 nM | –
COC(=O)c1ccc(O)c2c1C1(CCN(CC(C)(C)C)CC1)CN2c1ccccc1Nc1nnc(-c2ccc(C(F)(F)F)cc2)s1 [Example 43, Methyl 7-hydroxy-1′-neopentyl-1-(2-(5-(4-(trifluoromethyl)phenyl)-1,3,4-thiadiazol-2-ylamino)phenyl)spiro[indoline-3,4′-piperidine]-4-carboxylate] | – | 3.1 µM | – | 8 nM | –
COC(=O)c1ccc(O)c2c1C1(CCN(CC(C)(C)C)CC1)CN2c1ccccc1Nc1nnc(-c2ccc(C(C)(C)C)cc2)s1 [Example 44, Methyl 1-(2-(5-(4-tert-butylphenyl)-1,3,4-thiadiazol-2-ylamino)phenyl)-7-hydroxy-1′-neopentylspiro[indoline-3,4′-piperidine]-4-carboxylate] | – | 0.8 µM | – | – | 8 nM
CC(C)(C)CN1CCC2(CC1)CN(c1ccccc1Nc1nnc(-c3ccc(C(F)(F)F)cc3)s1)c1c(O)ccc(C#N)c12 [Example 45, 7-Hydroxy-1′-neopentyl-1-(2-(5-(4-(trifluoromethyl)phenyl)-1,3,4-thiadiazol-2-ylamino)phenyl)spiro[indoline-3,4′-piperidine]-4-carbonitrile] | – | 3.5 µM | – | 3 nM | –
CC(C)(C)CN1CCC2(CC1)CN(c1ccccc1Nc1nnc(-c3ccc(C(C)(C)C)cc3)s1)c1c(O)ccc(C#N)c12 [Example 46, 1-(2-(5-(4-tert-Butylphenyl)-1,3,4-thiadiazol-2-ylamino)phenyl)-7-hydroxy-1′-neopentylspiro[indoline-3,4′-piperidine]-4-carbonitrile] | – | 1.1 µM | – | 10 nM | –
